We go through five molecules from publication PMC7801616, “Surface hydrophobics mediate functional dimerization of CYP121A1 of Mycobacterium tuberculosis” (Scientific Reports, 2021).

pKd: −log10 of the molar value. Entries after “also recorded” stand apart in the source; their conditions may differ.

Assay [1] concerns I166A_I180A CYP121A1 heme thiolate-CO complex.
Assay [2] concerns WT CYP121A1 dimer. On the set-up: species or system Mycobacterium tuberculosis.
Assay [3] addresses WT CYP121A1 (dimeric) (Mycobacterium tuberculosis, UniProt P9WPP7). The format is binding. Conditions: pH 7.4.
For assay [4], the system named is I166A_I180A CYP121A1. Format: binding, Mycobacterium tuberculosis.
The target of assay [5] is I166A_I180A CYP121A1 (monomeric) (Mycobacterium tuberculosis, UniProt P9WPP7, I166A/I180A). The format is binding.

On to `O=C1N[C@@H](Cc2ccc(O)cc2)C(=O)N[C@H]1Cc1ccc(O)cc1` [cYY, cyclo-L-Tyr-L-Tyr], for which, in assay [1], the “increase of estimated half-life of the heme thiolate-CO complex by presence of substrate” value is 50 fold.
For `Clc1ccc(COC(Cn2ccnc2)c2ccc(Cl)cc2Cl)cc1` (stereo not drawn) [econazole], the “effect of ligand saturation on dimer migration on gel filtration column” value in assay [2] is “did not cause CYP121A1 to migrate on the column as a monomer”.
In the case of `c1c[nH]cn1` [imidazole], the pKd was 1.34 in assay [3] and 2.56 in assay [5] (pH 7.4). Further, in assay [4], the “effect of ligand on thermal stability” value is on record as “destabilizing”. Further, the “decrease of Kd from dimeric to monomeric CYP121A1” value in assay [5] turned out to be 20 fold.
Consider `CC(=O)N1CCN(c2ccc(OCC3COC(Cn4ccnc4)(c4ccc(Cl)cc4Cl)O3)cc2)CC1` (stereo not drawn) [ketoconazole], for which the “effect of ligand on thermal stability” value in assay [4] was “modest increase in the stability; also recorded: destabilizing”. In addition, the “stabilization of the CO-bound 450 nm species” value in assay [1] is “minimal stabilization of the 450 nm species”.
Regarding `Clc1ccc(COC(Cn2ccnc2)c2ccc(Cl)cc2Cl)c(Cl)c1` (stereo not drawn) [miconazole], the “effect of ligand saturation on dimer migration on gel filtration column” value in assay [2] is on record as “did not cause CYP121A1 to migrate on the column as a monomer”.
